From paper PMC10839021, “Pharmacological effects of monoterpene carveol on the neuromuscular system of nematodes and mammals” (Frontiers in Pharmacology, 2024)

Target: T1, A. suum ACR-16 nAChR (Asu-ACR-16, homomeric nicotinic acetylcholine receptor) (Ascaris suum, UniProt A0A0K0QSL7)
T1 construct: homomeric receptor expressed from Asu-ACR-16 cRNA in Xenopus laevis oocytes
Experiment: two-electrode voltage-clamp in Xenopus oocytes, agonist concentration-response
Assay type: cell-based

T1 sequence (A0A0K0QSL7 entry or part of it): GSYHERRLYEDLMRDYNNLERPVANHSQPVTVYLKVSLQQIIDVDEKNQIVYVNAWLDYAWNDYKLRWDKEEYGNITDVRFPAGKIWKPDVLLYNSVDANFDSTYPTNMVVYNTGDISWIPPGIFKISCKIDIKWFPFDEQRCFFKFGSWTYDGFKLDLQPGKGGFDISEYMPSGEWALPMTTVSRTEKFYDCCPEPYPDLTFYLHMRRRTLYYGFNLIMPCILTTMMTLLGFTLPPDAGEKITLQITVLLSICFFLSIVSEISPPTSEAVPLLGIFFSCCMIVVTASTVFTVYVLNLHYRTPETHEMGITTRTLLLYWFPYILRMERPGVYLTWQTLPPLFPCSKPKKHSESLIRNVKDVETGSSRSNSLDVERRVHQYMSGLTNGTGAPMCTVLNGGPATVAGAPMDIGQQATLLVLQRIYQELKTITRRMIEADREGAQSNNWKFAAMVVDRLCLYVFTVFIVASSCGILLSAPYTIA

CC(=O)OCC[N+](C)(C)C [acetylcholine]
EC50: 4.9 ± 1.2 µM
